The results in this text go back to ChEMBL document CHEMBL5113387, “An insight into the multifunctional role of ghrelin and structure activity relationship studies of ghrelin receptor ligands with clinical trials” (Eur J Med Chem, 2022).

pEC50, pKi: −log10 of the molar value. Peptide text beside a SMILES is read from it.

Data set [1] in a line: Stimulation of growth hormone secretion in rat pituitary cells. It is filed as functional, cell-based. The conditions noted are these: Pituitary gland cell.
In data set [2] the target is T1, Growth hormone secretagogue receptor type 1 (Homo sapiens, UniProt Q92847). As to the kind of experiment: Binding affinity to GHS-R1a (unknown origin) assessed as inhibition constant.
T1 sequence (Q92847 whole entry): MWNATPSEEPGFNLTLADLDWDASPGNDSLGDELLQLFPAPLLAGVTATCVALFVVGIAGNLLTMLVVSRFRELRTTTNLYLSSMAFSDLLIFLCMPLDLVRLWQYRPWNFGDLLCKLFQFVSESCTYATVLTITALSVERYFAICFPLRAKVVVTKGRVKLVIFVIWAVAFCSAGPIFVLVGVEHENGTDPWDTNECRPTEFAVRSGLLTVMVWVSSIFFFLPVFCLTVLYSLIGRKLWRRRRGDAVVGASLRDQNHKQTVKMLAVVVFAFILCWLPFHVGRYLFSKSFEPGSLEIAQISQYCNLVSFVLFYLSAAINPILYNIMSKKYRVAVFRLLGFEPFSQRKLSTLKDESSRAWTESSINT
The nature of data set [3]: Stimulation of growth hormone secretion in Wistar rat pituitary cells measured after 15 mins. The class given is functional, cell-based. The conditions noted are these: Pituitary gland cell, 0.25 h.
Data set [4] in a line: Oral bioavailability in human. The class given is ADME, organism-based. The conditions noted are these: in vivo.
In data set [5] the target is T1, Growth hormone secretagogue receptor type 1. As to the kind of experiment: Binding affinity to GHS-R1a (unknown origin). The conditions noted are these: filed as agonist.

As usually defined, the pEC50 is the negative decadic logarithm of the EC50, by convention in mol/L. For the molecule `C[C@H](O)CNC(C)(C)CC(=O)N[C@@H]1CCc2ccccc2N(Cc2ccc(-c3ccccc3-c3nn[nH]n3)cc2)C1=O`, the pEC50 in data set [1] is 8.52.

The molecule `CC(C)(N)CC(=O)N[C@@H]1CCc2ccccc2N(Cc2ccc(-c3ccccc3-c3nn[nH]n3)cc2)C1=O` showed a pEC50 in data set [1] of 7.22.

The pKi is the Ki on a negative log10 scale, so that one unit is a factor of ten. With `CN1CCC(S(=O)(=O)N[C@@H](COCc2ccccc2)C(=O)N2CCC3(CC2)CN(S(C)(=O)=O)c2ccccc23)CC1`, in data set [2], the pKi is > 7.00.

In data set [1], `C[C@H](NC(=O)[C@H](Cc1c[nH]c2ccccc12)NC(=O)[C@@H](N)Cc1c[nH]cn1)C(=O)N[C@@H](Cc1c[nH]c2ccccc12)C(=O)N[C@@H](Cc1ccccc1)C(=O)N[C@@H](CCCCN)C(N)=O` (H-HWAWFK-NH2) had a pEC50 of 8.00.

In data set [3], `CN1N=C2CCN(C(=O)[C@@H](COCc3ccccc3)NC(=O)C(C)(C)N)C[C@@]2(Cc2ccccc2)C1=O` [CAPROMORELIN] gave a pEC50 of 8.52.

In general, bioavailability refers to the share of a dose that reaches the circulation, judged against a reference dose that is usually intravenous. A low value points to little systemic uptake. Regarding `Cc1[nH]c2ccccc2c1C[C@@H](NC(=O)[C@@H](N)Cc1cnc[nH]1)C(=O)N[C@@H](C)C(=O)N[C@@H](Cc1c[nH]c2ccccc12)C(=O)N[C@H](Cc1ccccc1)C(=O)N[C@@H](CCCCN)C(N)=O` [EXAMORELIN] (HELM PEPTIDE1{H.[Cc1[nH]c2ccccc2c1C[C@@H](N[*:1])C(=O)[*:2]].A.W.[dF].K.[am]}$$$$V2.0), the bioavailability in data set [4] is < 1%.

The molecule `CC(C)(N)C(=O)N[C@H](COCc1ccccc1)C(=O)N1CCC2(CC1)CN(S(C)(=O)=O)c1ccccc12` [IBUTAMOREN] gave a pEC50 in data set [1] of 8.89. The molecule further returned an Activity in data set [5] of 0.3 nM.
